Laboratory results reported in the supplement of paper PMC11451515.

Tested on: NOMO1
Assay: cell viability relative to DMSO control; higher = less cytotoxic
Details: 48 h
Summary of the method: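 Library compounds in DMSO were pin-dosed in an 11-point threefold series (47 μM to 0.79 nM) onto leukemia cells in 1536-well plates (5 μl). Plates held 500 cells/well of NOMO1 or SEM or 1000 cells/well of P12-Ichikawa, each adapted for at least four passages in each medium. Luminescence was read with CellTiter-Glo One after 48 h at 37°C. Viability means the per-plate percentage relative to DMSO wells, using cell-free wells as background.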

[1] = HPLM + 10% dialyzed FBS, 0.000781 µM
[2] = HPLM + 10% dialyzed FBS, 0.00234 µM
[3] = HPLM + 10% dialyzed FBS, 0.00702 µM
[4] = HPLM + 10% dialyzed FBS, 0.0211 µM
[5] = HPLM + 10% dialyzed FBS, 0.0632 µM
[6] = HPLM + 10% dialyzed FBS, 0.19 µM
[7] = HPLM + 10% dialyzed FBS, 0.569 µM
[8] = HPLM + 10% dialyzed FBS, 1.71 µM
[9] = HPLM + 10% dialyzed FBS, 5.12 µM
[10] = HPLM + 10% dialyzed FBS, 15.4 µM
[11] = HPLM + 10% dialyzed FBS, 46.1 µM
[12] = RPMI 5 mM glucose + 10% FBS, 0.000781 µM
[13] = RPMI 5 mM glucose + 10% FBS, 0.00234 µM
[14] = RPMI 5 mM glucose + 10% FBS, 0.00702 µM
[15] = RPMI 5 mM glucose + 10% FBS, 0.0211 µM
[16] = RPMI 5 mM glucose + 10% FBS, 0.0632 µM
[17] = RPMI 5 mM glucose + 10% FBS, 0.19 µM
[18] = RPMI 5 mM glucose + 10% FBS, 0.569 µM
[19] = RPMI 5 mM glucose + 10% FBS, 1.71 µM
[20] = RPMI 5 mM glucose + 10% FBS, 5.12 µM
[21] = RPMI 5 mM glucose + 10% FBS, 15.4 µM
[22] = RPMI 5 mM glucose + 10% FBS, 46.1 µM
[23] = RPMI 5 mM glucose + 10% dialyzed FBS, 0.000781 µM
[24] = RPMI 5 mM glucose + 10% dialyzed FBS, 0.00234 µM
[25] = RPMI 5 mM glucose + 10% dialyzed FBS, 0.00702 µM
[26] = RPMI 5 mM glucose + 10% dialyzed FBS, 0.0211 µM
[27] = RPMI 5 mM glucose + 10% dialyzed FBS, 0.0632 µM
[28] = RPMI 5 mM glucose + 10% dialyzed FBS, 0.19 µM
[29] = RPMI 5 mM glucose + 10% dialyzed FBS, 0.569 µM
[30] = RPMI 5 mM glucose + 10% dialyzed FBS, 1.71 µM
[31] = RPMI 5 mM glucose + 10% dialyzed FBS, 5.12 µM
[32] = RPMI 5 mM glucose + 10% dialyzed FBS, 15.4 µM
[33] = RPMI 5 mM glucose + 10% dialyzed FBS, 46.1 µM

SMILES | cell viability [1] | cell viability [2] | cell viability [3] | cell viability [4] | cell viability [5] | cell viability [6] | cell viability [7] | cell viability [8] | cell viability [9] | cell viability [10] | cell viability [11] | cell viability [12] | cell viability [13] | cell viability [14] | cell viability [15] | cell viability [16] | cell viability [17] | cell viability [18] | cell viability [19] | cell viability [20] | cell viability [21] | cell viability [22] | cell viability [23] | cell viability [24] | cell viability [25] | cell viability [26] | cell viability [27] | cell viability [28] | cell viability [29] | cell viability [30] | cell viability [31] | cell viability [32] | cell viability [33]
CN[C@@H](C)[C@H]1[C@H](O)C[C@@]2(C)[C@@H]3CC[C@H]4C(C)(C)[C@@H](NC)CC[C@@]45C[C@@]35CC[C@]12C | 81.4% | 102% | 81.7% | 108% | 89.8% | 93.7% | 105% | 95.2% | 82.6% | 105% | 70.9% | 85.4% | 94.5% | 91.6% | 94.3% | 102% | 102% | 95% | 94.8% | 93.9% | 95.7% | 92.5% | 86.4% | 87.8% | 101% | 99.6% | 104% | 95.6% | 93.1% | 91.7% | 86.1% | 99.6% | 72.1%
Cc1onc(-c2ccccc2Cl)c1C(=O)N[C@@H]1C(=O)N2[C@@H]1SC(C)(C)[C@@H]2C(=O)[O-] | 104% | 104% | 123% | 116% | 98.9% | 103% | 105% | 113% | 92.8% | 105% | 84.7% | 112% | 119% | 134% | 110% | 104% | 115% | 115% | 107% | 99.5% | 97.9% | 94.3% | 117% | 124% | 123% | 103% | 111% | 103% | 102% | 108% | 110% | 84.1% | 96.3%
CC(C)(C)NC(=O)Nc1cccc(Nc2ncc(F)c(NC(C)(C)CO)n2)c1 | 99.9% | 115% | 133% | 140% | 112% | 137% | 122% | 130% | 127% | 111% | 108% | 123% | 115% | 127% | 112% | 135% | 112% | 120% | 133% | 111% | 69.8% | 98.4% |  |  |  |  |  |  |  |  |  |  | 
CCN(CC)CCCCNc1ncc2cc(-c3cc(OC)cc(OC)c3)c(NC(=O)NC(C)(C)C)nc2n1 | 122% | 136% | 125% | 113% | 111% | 108% | 94.8% | 86.8% | 104% | 83.8% | 33.2% |  |  |  |  |  |  |  |  |  |  |  |  |  |  |  |  |  |  |  |  |  | 
Clc1ccc(-c2nc3sccn3c2/C=N/OCc2ccc(Cl)c(Cl)c2)cc1 | 122% | 113% | 128% | 126% | 125% | 110% | 109% | 108% | 99.6% | 101% | 122% | 121% | 114% | 117% | 120% | 112% | 109% | 101% | 104% | 117% | 103% | 108% | 101% | 110% | 123% | 125% | 114% | 98% | 113% | 114% | 111% | 99.8% | 111%
CCOC(=O)[C@@H](N)Cc1ccc(-c2cc(O[C@H](c3ccc(Cl)cc3-n3ccc(C)n3)C(F)(F)F)nc(N)n2)cc1.O=C(O)CNC(=O)c1ccccc1 | 114% | 111% | 121% | 125% | 114% | 118% | 114% | 116% | 94.2% | 102% | 5.68% | 108% | 96.2% | 109% | 101% | 94.3% | 90.3% | 97.6% | 103% | 95.4% | 90.1% | 7.52% | 102% | 117% | 102% | 100% | 97% | 98.6% | 122% | 105% | 98.3% | 88.6% | 4.2%
C[C@@]12C(=O)OC(=O)[C@@]1(C)C1CCC2O1 | 111% | 109% | 107% | 116% | 115% | 123% | 114% | 101% | 70.4% | 12.6% | 6.53% | 98.4% | 90.8% | 86.6% | 87.1% | 103% | 89.9% | 95.3% | 81.6% | 79.9% | 8.16% | 6.61% | 110% | 96.1% | 101% | 99.7% | 106% | 106% | 88.6% | 89.8% | 64.9% | 7.15% | 5.77%
Cn1cnc2c(F)c(Nc3ccc(Br)cc3F)c(C(=O)NOCCO)cc21 | 91.4% | 83.3% | 95.9% | 27.1% | 62.4% | 56.4% | 57.7% | 41.4% | 34.3% | 40% | 35.3% | 83.3% | 80.2% | 82.4% | 16.4% | 75.5% | 66.2% | 50.2% | 42.6% | 37.5% | 31.2% | 36.5% | 77.1% | 90.2% | 98.7% | 37.9% | 75.3% | 49.6% | 45.4% | 40.5% | 39.6% | 34.5% | 34.6%
OC[C@@H](O)[C@@H](O)[C@H](O)[C@@H](O)CO | 96.4% | 116% | 129% | 133% | 131% | 131% | 130% | 132% | 129% | 123% | 135% | 106% | 114% | 108% | 111% | 130% | 109% | 107% | 110% | 114% | 112% | 114% | 102% | 112% | 99.5% | 111% | 113% | 137% | 122% | 108% | 135% | 127% | 131%
